Patent US6162925A, “Antibiotic for methicillin resistant bacteria” (Research Corporation Tech., Inc., priority 1999, dated 2000)
In brackets after ≈: the same amount, converted by molar mass.

Assays:
[1] = Stability of cyclization product 29; type: physicochemical
Procedure: To a mixture of 28 (70 mg, 0.067 mmol, 1.0 eq) and anisole (0.1 mL) was added TFA (1.0 mL). the resulting mixture was stirred for 15 min at room temperature. The TFA was evaporated and coevaporated with CH2 Cl2 to dryness. The resulting residue was dried on vacuo for 2 h and triturated with ethyl ether to give a white solid. This white solid was dissolved in THF (1.5 mL). To this solution was added triethylamine (20 μL, 0.14 mmol, 2.0 eq). After stirring 10 min., the solvent was evaporated and the resulting residue was immediately purified by PTLC (silica gel, CH2 Cl2 : EtOAc: MeOH, 4:1:0.5) to give 40 mg (67%) of 29 as a white solid. This product was unstable with a tendency to form a bicycle by-product (t1/2 is about 1 day) and was used for the next step immediately. ^1 H NMR (300 MHz, CD3 Cl/D2 O vs TMS): δ1.62 (4H, m); 2.45 (2H, m); 2.76/2.78 (3H, s); 3.32 (1H, m); 3.70 (1H, m); 3.93 (4H, m); 5.17 (6H, m); 7.32 (20H, m) ppm. IR (NaCl, film): 3381, 3258, 2934, 1765, 1713, 1646, 1608, 1504, 1452, 1252, 1186, 1096, 1063 cm^-1. MS (ES+): Calcd. for (C45 H49 N9 O11 +H)=892.4. Found (M+H)=892.4; (M+H-108)=784.3.

[2] = cited from earlier work
[3] = test system: Gram-positive and Gram-negative bacteria; conditions: S- versus R-configuration in the heterocyclic portion; cited from earlier work
[4] = test system: Pseudomonas Aeruginosa ATCC 27853; assay: MIC, broth microdilution (NCCLS), P. aeruginosa ATCC 27853; type: cell-based; conditions: ATCC27853, 20 h, read-out: Minimal Inhibitory Concentration (MIC)
Procedure: (§1) Test compounds were assayed against Staphylococcus aureus FDA 209P by the 10 fold agar disc diffusion assay on BHI-plates at pH=7 and pH=9 in accordance with the procedure from the National Committee for Clinical Laboratory Standards 1989. Susceptibility testing. A panel of 16 bacteria was used to evaluate the antimicrobial activity of the compounds (Table 2). The MIC of each antimicrobial agent was determined using a microdilution method according to NCCLS standards^1. Serial twofold dilutions of antibiotics were prepared in Mueller-Hinton broth (Difco Laboratories, Detroit, Mich.). Bacteria were grown to early log phase at 35° C. (1 hours) in Mueller-Hinton broth and cultures were diluted to achieve a final inoculum of 5×10^5 CFU per ml. Microtiter plates were incubated at 35° C. for 20 h and then were read using a Thermomax microplate reader (Molecular Devices, Sunnyvale, Calif.) and a microtiter plate reading mirror. The MIC was defined as the lowest concentration of antibiotic which inhibited the development of visible growth at the end of the incubation period. The standard reference strains were Staphyloccocus aureus ATCC […], Enterococcus faecalis ATCC 29212, E. faecium ATCC 35667, Escherichia coli ATCC 25922, and Pseudomonas aeruginosa ATCC 27853. Imipenem and vancomycin were used as antibiotic controls and values for reference strains were in accordance with the NCCLS.

[5] = test system: Enterococcus faecium ATCC 35667; assay: MIC, broth microdilution (NCCLS), E. faecium ATCC 35667; type: cell-based; conditions: ATCC35667, 20 h, read-out: Minimal Inhibitory Concentration (MIC)
Procedure: as §1
(§2) Enterococcus ATCC Reference strain

[6] = test system: Staphylococcus aureus sa201; assay: MIC, broth microdilution (NCCLS), S. aureus sa201; type: cell-based; conditions: SA201, 20 h, read-out: Minimal Inhibitory Concentration (MIC)
Procedure: as §1
Staphylococcus Clinical isolate,
aureus sa201 Spain resistant, β-

[7] = test system: Staphylococcus aureus ATCC 33593; assay: MIC, broth microdilution (NCCLS), S. aureus ATCC 33593; type: cell-based; conditions: ATCC33593, 20 h, read-out: Minimal Inhibitory Concentration (MIC)
Procedure: as §1
Staphylococcus ATCC Methicillin
aureus ATCC 33593 resistant, β-

[8] = test system: Staphylococcus aureus sa ATCC 13709; assay: MIC, broth microdilution (NCCLS), S. aureus sa ATCC 13709; type: cell-based; conditions: ATCC13709, 20 h, read-out: Minimal Inhibitory Concentration (MIC)
Procedure: as §1

[9] = test system: Staphylococcus aureus COL8A; assay: MIC, broth microdilution (NCCLS), S. aureus COL8A; type: cell-based; conditions: 20 h, read-out: Minimal Inhibitory Concentration (MIC)
Procedure: as §1
(§3) Staphylococcus Methicillin
aureus COL8A susceptible, […]

[10] = test system: Staphylococcus haemolyticus UA281; assay: MIC, broth microdilution (NCCLS), S. haemolyticus UA281; type: cell-based; conditions: UA281, 20 h, read-out: Minimal Inhibitory Concentration (MIC)
Procedure: as §1, §3
haemolyticus UA281 resistant

[11] = test system: Staphylococcus aureus ATCC 29213; assay: MIC, broth microdilution (NCCLS), S. aureus ATCC 29213; type: cell-based; conditions: ATCC29213, 20 h, read-out: Minimal Inhibitory Concentration (MIC)
Procedure: as §1
Staphylococcus ATCC Reference strain

[12] = test system: Escherichia coli ATCC 25922; assay: MIC, broth microdilution (NCCLS), E. coli ATCC 25922; type: cell-based; conditions: ATCC25922, 20 h, read-out: Minimal Inhibitory Concentration (MIC)
Procedure: as §1

[13] = test system: Enterococcus faecium BM4147; assay: MIC, broth microdilution (NCCLS), E. faecium BM4147; type: cell-based; conditions: BM4147, 20 h, read-out: Minimal Inhibitory Concentration (MIC)
Procedure: as §1
(§4) Enterococcus Vancomycin
faecium BM4147 resistant, vanA

[14] = test system: Staphylococcus aureus PC1; assay: MIC, broth microdilution (NCCLS), S. aureus PC1; type: cell-based; conditions: PC1, 20 h, read-out: Minimal Inhibitory Concentration (MIC)
Procedure: as §1
Staphylococcus Type A βlactamase
aureus PC1 hyperproducer

[15] = test system: Staphylococcus aureus 76; assay: MIC, broth microdilution (NCCLS), S. aureus 76; type: cell-based; conditions: Staphylococcus aureus, 76, 20 h, read-out: Minimal Inhibitory Concentration (MIC)
Procedure: as §1, §3

[16] = test system: Enterococcus faecalis ATCC 29212; assay: MIC, broth microdilution (NCCLS), E. faecalis ATCC 29212; type: cell-based; conditions: ATCC29212, 20 h, read-out: Minimal Inhibitory Concentration (MIC)
Procedure: as §1, §2

[17] = test system: Enterococcus faecalis V583; assay: MIC, broth microdilution (NCCLS), E. faecalis V583; type: cell-based; conditions: V583, 20 h, read-out: Minimal Inhibitory Concentration (MIC)
Procedure: as §1, §4
faecalis V583 resistant, vanB

[18] = test system: Enterococcus faecium efm040; assay: MIC, broth microdilution (NCCLS), E. faecium efm040; type: cell-based; conditions: EFM040, 20 h, read-out: Minimal Inhibitory Concentration (MIC)
Procedure: as §1
Enterococcus Clinical isolate,
faecium efm040 U.S.A. resistant

[19] = test system: Staphylococcus aureus COL; assay: MIC, broth microdilution (NCCLS), S. aureus COL; type: cell-based; conditions: 20 h, read-out: Minimal Inhibitory Concentration (MIC)
Procedure: as §1, §3
aureus COL resistant, β-

Question: With `CN(C(=O)C[C@H](CCCN(C(=N)NC(=O)OCc1ccccc1)C(=O)OCc1ccccc1)NC(=O)OCc1ccccc1)C1CNC(NC(=O)NC(=O)OCc2ccccc2)=NC1=O` (some centres unmarked) [Compound 29] as the compound, how does the “t1/2 (tendency to form a bicycle by-product)” value [1] read?
Answer: about 1 day

Question: With `CN1C(=O)C[C@H](CCCNC(=N)N)NC(=O)[C@@H]1CNC(=N)NC(N)=O` [TAN-1057D] as the compound, how does the “conversion upon standing in water” value [2] read?
Answer: rapidly convert to a mixture of TAN-1057A/B upon standing in water

Question: And the “relative antibacterial activity of stereoisomers” value [3]?
Answer: more active than TAN-1057 B and C

Question: For `CN[C@H](CC(C)C)C(=O)N[C@H]1C(=O)N[C@@H](CC(N)=O)C(=O)N[C@H]2C(=O)N[C@H]3C(=O)N[C@H](C(=O)N[C@H](C(=O)O)c4cc(O)cc(O)c4-c4cc3ccc4O)[C@H](O)c3ccc(c(Cl)c3)Oc3cc2cc(c3O[C@@H]2O[C@H](CO)[C@@H](O)[C@H](O)[C@H]2O[C@H]2C[C@](C)(N)[C@H](O)[C@H](C)O2)Oc2ccc(cc2Cl)[C@H]1O` [Vancomycin, vancomycin], which MIC [4] is on record?
Answer: > 128 µg/mL

Question: And the MIC [5]?
Answer: ≤ 0.25 µg/mL

Question: What about the MIC [6] of the same compound?
Answer: 0.5 µg/mL (≈ 0.345 µM)

Question: And the MIC [7]?
Answer: 0.5 µg/mL (≈ 0.345 µM)

Question: What about the MIC [8] of the same compound?
Answer: ≤ 0.25 µg/mL

Question: And the MIC [9]?
Answer: ≤ 0.25 µg/mL

Question: And the MIC [10]?
Answer: 1 µg/mL (≈ 0.69 µM)

Question: What about the MIC [11] of the same compound?
Answer: ≤ 0.25 µg/mL

Question: And the MIC [12]?
Answer: > 128 µg/mL

Question: What about the MIC [13] of the same compound?
Answer: > 128 µg/mL

Question: What about the MIC [14] of the same compound?
Answer: ≤ 0.25 µg/mL

Question: And the MIC [15]?
Answer: ≤ 0.25 µg/mL

Question: And the MIC [16]?
Answer: 1 µg/mL (≈ 0.69 µM)

Question: And the MIC [17]?
Answer: 16 µg/mL (≈ 11 µM)

Question: What about the MIC [18] of the same compound?
Answer: ≤ 0.25 µg/mL

Question: What about the MIC [19] of the same compound?
Answer: 1 µg/mL (≈ 0.69 µM)

Question: With `CN1C(=O)C[C@H](CCCNC(=N)N)NC(=O)[C@H]1CNC(=N)NC(N)=O` [TAN-1057C] as the compound, how does the “conversion upon standing in water” value [2] read?
Answer: rapidly convert to a mixture of TAN-1057A/B upon standing in water
